The record followed here is US10961202B2, “Bis-benzimidazole compounds and methods of using the same” (THE SCRIPPS RESEARCH INSTITUTE, priority 2017, dated 2021).

The test system of this test is r(CUG)12-MBNL1 complex. Description: Inhibition of the r(CUG)12-MBNL1 complex measured by TR-FRET. The test is classed as biochemical. The note with it: Table M; 80 nM RNA, 60 nM MBNL1-His6.

Molecules are shown by their SMILES.

For orientation: IC50 means the concentration that gives 50% inhibition. As to `CN1CCC(Oc2ccc3nc(-c4ccc(-c5nc6ccc(OC7CCN(C)CC7)cc6[nH]5)cc4)[nH]c3c2)CC1` [Compound 208], the IC50 is 101 µM.
Under `CN(C)CCCCCCOc1ccc2nc(-c3ccc(-c4nc5ccc(O)cc5[nH]4)cc3)[nH]c2c1` [Compound 209] stands 19.4 µM.
`CN(C)CCSCCOc1ccc2nc(-c3ccc(-c4nc5ccc(OCCSCCN(C)C)cc5[nH]4)cc3)[nH]c2c1` [Compound 210] yielded an IC50 of 33.3 µM.
In turn, `CN(C)CCN(C)CCOc1ccc2nc(-c3ccc(-c4nc5ccc(OCCN(C)CCN(C)C)cc5[nH]4)cc3)[nH]c2c1` [Compound 211] registered an IC50 of 112 µM. Compared with the last molecule, the IC50 is about 3.4-fold higher.
`CN(C)Cc1cccc(COc2ccc3nc(-c4ccc(-c5nc6ccc(OCc7cccc(CN(C)C)c7)cc6[nH]5)cc4)[nH]c3c2)c1` [Compound 213, 1,1′-((((1,4-phenylenebis(1H-benzo[d]imidazole-2,6-diyl))bis(oxy))bis(methylene))bis(3,1-phenylene))bis(N,N-dimethylmethanamine)] gave an IC50 of 22.8 µM.
The molecule `CN(C)CCCOc1cccc2nc(-c3ccc(-c4nc5cccc(OCCCN(C)C)c5[nH]4)cc3)[nH]c12` [Compound 215, 3,3′-((2,2′-(1,4-phenylene)bis(1H-benzo[d]imidazole-7,2-diyl))bis(oxy))bis(N,N-dimethylpropan-1-amine)] displayed an IC50 of 20.5 µM.
Then `CN(C)CCCOc1cccc2nc(-c3ccc(-c4nc5cccc(O)c5[nH]4)cc3)[nH]c12` [Compound 216, 2-(4-(7-(3-(dimethylamino)propoxy)-1H-benzo[d]imidazol-2-yl)phenyl)-1H-benzo[d]imidazol-7-ol], with 125 µM.
Under `CN(C)Cc1ccc(COc2ccc3nc(-c4ccc(-c5nc6ccc(OCc7ccc(CN(C)C)cc7)cc6[nH]5)cc4)[nH]c3c2)cc1` [Compound 217] stands 51.9 µM.
As for `CN(C)C[C@H]1CC[C@H](COc2ccc3nc(-c4ccc(-c5nc6ccc(OC[C@H]7CC[C@H](CN(C)C)CC7)cc6[nH]5)cc4)[nH]c3c2)CC1` [Compound 218, 1,1′-((1r,1′r,4r,4′r)-(((1,4-phenylenebis(1H-benzo[d]imidazole-2,6-diyl))bis(oxy))bis(methylene))bis(cyclohexane-4,1-diyl))bis(N,N-dimethylmethanamine)], the IC50 worked out at 68.7 µM.
As for `CN(C)[C@H]1CC[C@H](Oc2ccc3nc(-c4ccc(-c5nc6ccc(O[C@H]7CC[C@H](N(C)C)CC7)cc6[nH]5)cc4)[nH]c3c2)CC1` [Compound 219], the midpoint of inhibition, the IC50, lay at 18.1 µM.
Then `CN(C)CCCCc1ccc2nc(-c3ccc(-c4nc5ccc(CCCCN(C)C)cc5[nH]4)cc3)[nH]c2c1` [Compound 220, 4,4′-(2,2′-(1,4-phenylene)bis(1H-benzo[d]imidazole-6,2-diyl))bis(N,N-dimethylbutan-1-amine)], with over 200 µM; and `CN(C)CCCOc1ccc2nc(-c3ccc(-c4nc5ccc(OCCCO)cc5[nH]4)cc3)[nH]c2c1` [Compound 222, 3-((2-(4-(5-(3-(dimethylamino)propoxy)-1H-benzo[d]imidazol-2-yl)phenyl)-1H-benzo[d]imidazol-5-yl)oxy)propan-1-ol], with 95.3 µM; and `OCCCOc1ccc2nc(-c3ccc(-c4nc5ccc(OCCCO)cc5[nH]4)cc3)[nH]c2c1` [Compound 223, 3,3′-((1,4-phenylenebis(1H-benzo[d]imidazole-2,5-diyl))bis(oxy))bis(propan-1-ol)], with over 200 µM.
As to `CN(C)CCCOc1ccc2nc(-c3ccc(-c4nc5ccc(OCCCCO)cc5[nH]4)cc3)[nH]c2c1` [Compound 224], the IC50 was found to be 63.4 µM.
In turn, `OCCCCOc1ccc2nc(-c3ccc(-c4nc5ccc(OCCCCO)cc5[nH]4)cc3)[nH]c2c1` [Compound 225] registered an IC50 of 154 µM.
Molecule `CN(C)CC#CCOc1ccc2nc(-c3ccc(-c4nc5ccc(OCC#CCN(C)C)cc5[nH]4)cc3)[nH]c2c1` [Compound 226, 4,4′-((2,2′-(1,4-phenylene)bis(1H-benzo[d]imidazole-6,2-diyl))bis(oxy))bis(N,N-dimethylbut-2-yn-1-amine)] displayed an IC50 of over 200 µM.
Under `CN(C)Cc1cn(CCOc2ccc3nc(-c4ccc(-c5nc6ccc(OCCn7cc(CN(C)C)nn7)cc6[nH]5)cc4)[nH]c3c2)nn1` [Compound 227] stands 120 µM; under `CN(C)CCCOc1ccc2nc(-c3ccc(-c4nc5ccc(SCCCN(C)C)cc5[nH]4)cc3)[nH]c2c1` [Compound 228, 3-((2-(4-(6-(3-(dimethylamino)propoxy)-1H-benzo[d]imidazol-2-yl)phenyl)-1H-benzo[d]imidazol-6-yl)thio)-N,N-dimethylpropan-1-amine], 47.1 µM; under `N#Cc1ccc(Oc2ccc3nc(-c4ccc(-c5nc6ccc(Oc7ccc(C#N)cc7)cc6[nH]5)cc4)[nH]c3c2)cc1` [Compound 229, 4,4′-((2,2′-(1,4-phenylene)bis(1H-benzo[d]imidazole-6,2-diyl))bis(oxy))dibenzonitrile], over 200 µM.
In turn, `N#Cc1cccc(Oc2ccc3nc(-c4ccc(-c5nc6ccc(Oc7cccc(C#N)c7)cc6[nH]5)cc4)[nH]c3c2)c1` [Compound 230, 3,3′-((2,2′-(1,4-phenylene)bis(1H-benzo[d]imidazole-6,2-diyl))bis(oxy))dibenzonitrile] gave an IC50 of over 200 µM.
Turning to `CN(C)CCCOc1ccc2nc(-c3ccc(-c4nc5ccc(C(=O)NCCN6CCCC6)cc5[nH]4)cc3)[nH]c2c1` [Compound 232, 2-(4-(6-(3-(dimethylamino)propoxy)-1H-benzo[d]imidazol-2-yl)phenyl)-N-(2-(pyrrolidin-1-yl)ethyl)-1H-benzo[d]imidazole-6-carboxamide], the IC50 was 25 µM.
In the case of `CN(C)C/C=C/COc1ccc2nc(-c3ccc(-c4nc5ccc(OC/C=C/CN(C)C)cc5[nH]4)cc3)[nH]c2c1` [Compound 233, (2E,2′E)-4,4′-((2,2′-(1,4-phenylene)bis(1H-benzo[d]imidazole-6,2-diyl))bis(oxy))bis(N,N-dimethylbut-2-en-1-amine)], 39.5 µM corresponded to half-maximal inhibition (IC50).
Then `NCc1cccc(Oc2ccc3nc(-c4ccc(-c5nc6ccc(Oc7cccc(CN)c7)cc6[nH]5)cc4)[nH]c3c2)c1` [Compound 234, (((2,2′-(1,4-phenylene)bis(1H-benzo[d]imidazole-6,2-diyl))bis(oxy))bis(3,1-phenylene))dimethanamine], with 39.8 µM; and `CN(C)CCCOc1ccc2nc(-c3ccc(-c4nc5ccc(OCCCN=[N+]=[N-])cc5[nH]4)cc3)[nH]c2c1` [Compound 235, 3-((2-(4-(6-(3-azidopropoxy)-1H-benzo[d]imidazol-2-yl)phenyl)-1H-benzo[d]imidazol-6-yl)oxy)-N,N-dimethylpropan-1-amine], with 78.2 µM; and `NCc1ccc(Oc2ccc3nc(-c4ccc(-c5nc6ccc(Oc7ccc(CN)cc7)cc6[nH]5)cc4)[nH]c3c2)cc1` [Compound 236, (((2,2′-(1,4-phenylene)bis(1H-benzo[d]imidazole-6,2-diyl))bis(oxy))bis(4,1-phenylene))dimethanamine], with 62.1 µM.
Under `CN(C)CCCOc1ccc2nc(-c3ccc(-c4nc5ccc(C(=O)NCCN6CCCCC6)cc5[nH]4)cc3)[nH]c2c1` [Compound 237, 2-(4-(6-(3-(dimethylamino)propoxy)-1H-benzo[d]imidazol-2-yl)phenyl)-N-(2-(piperidin-1-yl)ethyl)-1H-benzo[d]imidazole-6-carboxamide] stands 26 µM.
Molecule `CN(C)CCCOc1ccc2nc(-c3ccc(-c4nc5ccc(C(=O)NCCN(C)C)cc5[nH]4)cc3)[nH]c2c1` [Compound 238] had an IC50 of 10 µM.
`CN(C)CCCNC(=O)c1ccc2nc(-c3ccc(-c4nc5ccc(OCCCN(C)C)cc5[nH]4)cc3)[nH]c2c1` [Compound 239] gave an IC50 of 24.8 µM.
In turn, `CN(C)CCCOc1ccc2nc(-c3ccc(-c4nc5ccc(OCCCC(F)(F)F)cc5[nH]4)cc3)[nH]c2c1` [Compound 240, N,N-dimethyl-3-((2-(4-(6-(4,4,4-trifluorobutoxy)-1H-benzo[d]imidazol-2-yl)phenyl)-1H-benzo[d]imidazol-6-yl)oxy)propan-1-amine] yielded an IC50 of 71.5 µM.
Then `CN(C)CCCOc1ccc2nc(-c3ccc(-c4nc5ccc(OCCCC#N)cc5[nH]4)cc3)[nH]c2c1` [Compound 241, 4-((2-(4-(6-(3-(dimethylamino)propoxy)-1H-benzo[d]imidazol-2-yl)phenyl)-1H-benzo[d]imidazol-6-yl)oxy)butanenitrile], with 64.7 µM; and `CN(C)Cc1ccc(Oc2ccc3nc(-c4ccc(-c5nc6ccc(Oc7ccc(CN(C)C)cc7)cc6[nH]5)cc4)[nH]c3c2)cc1` [Compound 242], with 47.7 µM; and `CN(C)Cc1cccc(Oc2ccc3nc(-c4ccc(-c5nc6ccc(Oc7cccc(CN(C)C)c7)cc6[nH]5)cc4)[nH]c3c2)c1` [Compound 243], with over 200 µM.
Under `CN(C)C/C=C\COc1ccc2nc(-c3ccc(-c4nc5ccc(OC/C=C\CN(C)C)cc5[nH]4)cc3)[nH]c2c1` [Compound 244, (2Z,2′Z)-4,4′-((2,2′-(1,4-phenylene)bis(1H-benzo[d]imidazole-6,2-diyl))bis(oxy))bis(N,N-dimethylbut-2-en-1-amine)] stands 23.5 µM; under `COc1ccc2nc(-c3ccc(-c4nc5ccc(OCCCN(C)C)cc5[nH]4)cc3)[nH]c2c1` [Compound 245, 3-((2-(4-(6-methoxy-1H-benzo[d]imidazol-2-yl)phenyl)-1H-benzo[d]imidazol-6-yl)oxy)-N,N-dimethylpropan-1-amine], 83.8 µM.
For the molecule `CN(C)CCCOc1ccc2nc(-c3ccc(-c4nc5ccccc5[nH]4)cc3)[nH]c2c1` [Compound 246], the IC50 was over 200 µM.
In the case of `CN(C)Cc1cn(-c2ccc3nc(-c4ccc(-c5nc6ccc(-n7cc(CN(C)C)nn7)cc6[nH]5)cc4)[nH]c3c2)nn1` [Compound 247], the IC50 was found to be 6.8 µM.
Under `CN(C)CCCOc1ccc2nc(-c3ccc(-c4nc5ccc(OCCCC(=O)O)cc5[nH]4)cc3)[nH]c2c1` [Compound 248, 4-((2-(4-(5-(3-(dimethylamino)propoxy)-1H-benzo[d]imidazol-2-yl)phenyl)-1H-benzo[d]imidazol-5-yl)oxy)butanoic acid] stands over 200 µM.
`CN(C)CCCOc1ccc2nc(-c3ccc(-c4nc5ccc(O)cc5[nH]4)cc3)[nH]c2c1` [Compound 249] registered an IC50 of 52.6 µM. This counts as double-digit micromolar.
